Assays:
[1] = Serum 4EPS after i.p. injection; type: in vivo; details: single i.p. injection of 30 mg/kg potassium 4EPS, adult wild-type mice
Protocol: Authentic 4EPS and serum samples were analyzed by LC/MS using an Agilent […] HPLC system equipped with a photodiode array detector and interfaced to a model G1946C single quadrupole […] mass spectrometer. HPLC separations were obtained at 25° C. using an Agilent Zorbax XDB-C18 column (4.6 mm×50 mm×5 um particle size). The 4EPS ion was detected using selected ion monitoring for ions of m/z 200.9 and dwell time of 580 ms/ion, with the electrospray capillary set at 3 kV. […] For quantification of 4EPS in mouse sera, a dose-response curve was constructed by plotting the total ion count peak area for known concentrations of authentic potassium 4EPS against the analyte concentration (R^2=0.9998; FIG. 15B). Mouse serum samples were diluted four-fold with acetonitrile and centrifuged at 10,000 g at 4° C. for 3 minutes. 10 ul of supernatant was injected directly into the HPLC system.
(§1) Wildtype mice were injected i.p. with saline or 30 mg/kg 4EPS potassium salt daily from 3 to 6 weeks of age. A dose-response curve was generated by measuring serum 4EPS levels at various times after i.p. injection of 30 mg/kg 4EPS (FIG. 15C). Mice were behaviorally tested as described above from 6 to 9 weeks of age.

naïve wild-type mice [2] = test: 4EPS sufficiency experiment: pre-pulse inhibition and startle; type: in vivo; details: 30 mg/kg i.p. daily
Protocol: PPI tests are used as a measure of sensorimotor gating and were conducted and analyzed according to the procedure described in Geyer and Swerdlow, 2001 and Smith et al., 2007. Briefly, mice were acclimated to the testing chambers of the SR-LAB startle response system (San Diego Instruments) for 5 minutes, presented with six 120 db pulses of white noise (startle stimulus) and then subjected to 14 randomized blocks of either no startle, startle stimulus only, 5 db prepulse with startle or 15 db prepulse with startle. The startle response was recorded by a piezo-electric sensor, and the percent PPI is defined as: [((startle stimulus only—5 or 15 db prepulse with startle)/startle stimulus only)*100].
as §1

naïve wild-type mice [3] = test: 4EPS sufficiency experiment: marble burying; type: in vivo; details: 4EPS-treated versus saline-treated mice
Protocol: Marble burying is an elicited repetitive behavior in rodents analogous to those observed in autistic individuals (Silverman et al., 2010b). This test was conducted and analyzed according to methods described in Thomas et al., 2009 and Malkova et al., 2012. Mice were habituated for 10 minutes to a novel testing cage containing a 4 cm layer of chipped cedar wood bedding and then transferred to a new housing cage. 18 glass marbles (15 mm diameter) were aligned equidistantly 6×3 in the testing cage. Mice were returned to the testing cage and the number of marbles buried in 10 minutes was recorded.
as §1

[4] = 4EPS sufficiency experiment: body weight; type: in vivo; details: 4EPS- versus control-treated mice
Protocol: as §1

naïve wild-type mice [5] = test: 4EPS sufficiency experiment: ultrasonic vocalizations; type: in vivo; details: 4EPS-treated versus saline-treated mice
Protocol: Male mice produce USVs in response to female mice as an important form of communication (Portfors, 2007). Adult male USV production in response to novel female exposure was measured according to methods described in Grimsley et al., 2011; Scattoni et al., 2011; and Silverman et al., 2010a. Adult males were single-housed one week before testing and exposed for 20 minutes to an unfamiliar adult female mouse each day starting four days prior to testing in order to provide a standardized history of sexual experience and to adjust for differences in social dominance. On testing day, mice were habituated to a novel cage for 10 minutes before exposure to a novel age-matched female. USVs were recorded for 3 minutes using the UltraSoundGate microphone and audio system (Avisoft Bioacoustics). Recordings were analyzed using Avisoft's SASLab Pro software after fast Fourier transformation at 512 FFT-length and detection by a threshold-based algorithm with 5 ms hold time. Data presented reflect duration and number of calls produced in the 3 minute session.
as §1

naïve wild-type mice [6] = test: 4EPS sufficiency experiment: open field exploration; type: in vivo
Protocol: The open field test is widely used to measure anxiety-like and locomotor behavior in rodents. Mice were placed in 50×50 cm white Plexiglas boxes for 10 minutes. An overhead video camera recorded the session, and Ethovision software (Noldus) was used to analyze the distance traveled, and the number of entries and duration of time spent in the center arena (central 17 cm square).
as §1

CNTNAP2 knockout mice = details: cited from earlier work
ASD individuals = details: cited from earlier work
claudin 8 and claudin 15 [7] = test: In vitro colon culture with IL-6, claudin expression; type: cell-based, mice; details: in vitro colon organ cultures
Protocol: (§2) For in vivo assays, adult mice were gavaged with 5 ug carrier-free recombinant mouse IL-6 (eBioscience) in 1.5% sodium bicarbonate. At 4 hours post-gavage, 1 cm regions of distal, medial and proximal colon were dissected, washed in HBSS and processed for qRT-PCR, as described above. For in vitro assays, adult mice were sacrificed and 1 cm regions of distal, medial and proximal colon were dissected, washed and bisected for colon culture with 0-80 ng/ml IL-6 in complete RPMI media. After 4 hours of culture, colon pieces were harvested and processed for qRT-PCR, as described above.

claudin 8 and claudin 15 [8] = test: IL-6 oral gavage, colon claudin expression; design: species or system mice; details: in vivo
Protocol: as §2

[9] = 30 mg/kg i.p. daily, relative to vehicle-treated controls

Molecule: CCc1ccc(OS(=O)(=O)[O-])cc1.[K+] [4-ethylphenylsulfate]
- serum 4EPS [1]: Time-dependent increases
- PPI (naïve wild-type mice [2]; 5 db or 15 db pre-pulse): no significant alterations
- intensity of startle in response to the unconditioned primary stimulus (naïve wild-type mice [2]; 120 db pulse): increased intensity of startle
- marble burying (naïve wild-type mice [3]): no significant differences
- weight [4]: no difference
- USV behavior (naïve wild-type mice [5]): no significant differences
- anxiety-like behavior (naïve wild-type mice [6]; 30 mg/kg i.p. daily from 3 to 6 weeks of age): sufficient to induce anxiety-like behavior
- distance traveled in the open field (naïve wild-type mice [6]; [9]): comparable distances
- time in the center arena (naïve wild-type mice [6]; [9]): less time
- number of entries into the center of the field (naïve wild-type mice [6]; 30 mg/kg i.p. daily, versus vehicle-treated mice): no difference

Molecule: Cc1nc2n(c(=O)c1CCN1CCC(c3noc4cc(F)ccc34)CC1)CCCC2 [risperidone]
- social behavior (CNTNAP2 knockout mice): inability to improve social behavior
- social behavior (ASD individuals): inability to improve social behavior

B1: recombinant IL-6: carrier-free recombinant mouse IL-6 (eBioscience) (protein, UniProt P08505 25-211, looked up)
Interleukin-6: FPTSQVRRGDFTEDTTPNRPVYTTSQVGGLITHVLWEIVEMRKELCNGNSDCMNNDDALAENNLKLPEIQRNDGCYQTGYNQEICLLKISSGLLEYHSYLEYMKNNLKDNKKDKARVLQRDTETLIHIFNQEVKDLHKIVLPTPISNALLTDKLESQKEWLRTKTIQFILKSLEEFLKVTLRSTRQT
- colon levels of claudin 8 and claudin 15 (claudin 8 and claudin 15 [7]): can modulate
- colon levels of claudin 8 and claudin 15 (claudin 8 and claudin 15 [8]): can modulate

— US11052151B2, “Diagnosis and treatment of autism spectrum disorder” (California Institute of Technology, priority 2012, dated 2021)
